The source of these data is patent publication US10506810B2, “Synergistic herbicidal composition” (QINGDAO KINGAGROOT RESISTANT WEED MANAGEMENT CO., LTD., priority 2015, dated 2019).

Holding throughout (test): pot-culture method, stem and leaf treatment in greenhouse, fresh weight inhibition rate 20 days after treatment (Gowing method)
Holding throughout (type): in vivo

One assay has as its system Capsella bursa-pastoris. The settings on record: for pest or weed control at 750 g/ha: 750 g/hm^2. As for the experimental part: (§1) Capsella bursa-pastoris, Myosoton aquaticum, Alopecurus japonicus were collected from corn fields in Huangdao Experimental Base of Shandong Province.
(§2) The above weeds were cultivated by a pot culture method. […] Full and uniform weed seeds were selected, soaked in warm water at 25° C. for 6 hours, and germinated in a 28° C. biochemical incubator (darkness). […] A certain amount of water was added to the enamel pan regularly to keep the soil moist.
(§3) The technical materials were all dissolved in acetone, and diluted with an aqueous solution containing 0.1% emulsifier T-80. The dilution is performed as required.
(§4) A ratio of the active ingredient A to the active ingredient B and amounts thereof in each group depends on the characteristics and toxicity of the two agents, as well as the main application purpose of a corresponding formulation. Based on the pre-tests in this study, the dosage of the active ingredient A and the active ingredient B applied alone and in combination were shown in the tables, and a total 15 groups were designed. Water containing the solvent and emulsifier same with the above groups but free of the agents was used as a blank control.
(§5) 3 pots with 20 weed seeds per pot were treated in one treatment with […] per treatment, that is, a total of 60 weeds were treated in one treatment.
(§6) The agents were used for only once in the experiment. In the stage of weeds with 2 leaves and 1 core, the weeds were thinned out to maintain 15 weeds per pot and 45 weeds for each treatment, then continued to be cultured to 3-5-leaves stage of Capsella bursa-pastoris and Myosoton aquaticum, and 3-leaves and 1-core stage of Alopecurus japonicus, and treated.
(§7) The well-cultured weeds were evenly placed on a platform with an area of 0.5 m^2, and a solution of agents was sprayed on the stems and leaves thereof by the 3WP-2000-type walking spray tower at a dosage of 30 kg/ha and at a spray pressure of 0.3 MPa. After all the solution was sprayed, the valve was closed. After 30 seconds, the door of the spray tower was opened, and the nutritional bowl was taken out. Then the valve was opened, and the spray tube was cleaned by spraying 50 ml of water.
(§8) A pot-culture method was employed. For the cultivation of weeds, please refer to the Section 1.2, and “Pesticide guidelines for laboratory bioactivity tests—herbicides”. As to a method for applying agents, please refer to the section 2.3.2, that is, a method for treating stems and leaves was employed.
(§9) A method for investigating absolute number was employed, wherein whole seedlings of survival weeds were cut off with a blade along the soil surface, and the fresh weight of the weeds was weighed with an analytical balance. For dead weeds, the fresh weight thereof was zero.
(§10) The investigation was performed after 20 days of the treatment for only once.
(§11) Wherein, in the formula, X represented the fresh weight inhibition rate of the active ingredient A in a dosage of P, and Y represented the fresh weight inhibition rate of the active ingredient B in a dosage of Q.

For a further assay, the system named is Alopecurus japonicus. As for the experimental part:
as §1, §2, §3, §4, §5, §6, §7, §8, §9, §10, §11

For the next assay, the system named is Myosoton aquaticum. The settings on record: for pest or weed control at 750 g/ha: 750 g/hm^2. As for the experimental part: as §1, §2, §3, §4, §5, §6, §7, §8, §9, §10, §11
[1] abbreviates: Capsella bursa-pastoris, 40 g/hm^2.
Setting [2] is: Capsella bursa-pastoris, 480 h, read-out: actual fresh weight inhibition rate.
The mark [3] stands for this setting: Myosoton aquaticum, 480 h, read-out: actual fresh weight inhibition rate.
The mark [4] stands for this setting: 480 h, Capsella bursa-pastoris, read-out: actual fresh weight inhibition rate.
[5] abbreviates: Myosoton aquaticum, 480 h, Myosoton aquaticum, read-out: actual fresh weight inhibition rate.

`COc1nn(C(=O)[N-]S(=O)(=O)c2ccccc2OC(F)(F)F)c(=O)n1C.[Na+]` [Flucarbazone-sodium]: the “actual fresh weight inhibition rate” value in the assay with Capsella bursa-pastoris (dosage 20 g/hm^2) came out at 25.6%; in the assay with Capsella bursa-pastoris (dosage 35 g/hm^2) it was 42.7%; in the assay with Capsella bursa-pastoris (dosage 50 g/hm^2), 65.1%; in the assay on Alopecurus japonicus (dosage 20 g/hm^2), 69.6%; with Alopecurus japonicus (dosage 35 g/hm^2), 80.3%; with Alopecurus japonicus (dosage 50 g/hm^2) it was 85.6%.

As for `C[C@@H](Oc1ccc(Oc2ncc(Cl)cc2F)cc1)C(=O)O` [clodinafop], the “actual fresh weight inhibition rate” value in the assay with Capsella bursa-pastoris (setting [1]) is on record as 0%; with Capsella bursa-pastoris (Capsella bursa-pastoris, 65 g/hm^2) it was 0%; in the assay on Capsella bursa-pastoris (Capsella bursa-pastoris, 90 g/hm^2) it was 0%; in the assay with Alopecurus japonicus (Alopecurus japonicus, 40 g/hm^2) it was 81.3%; with Alopecurus japonicus (Alopecurus japonicus, 65 g/hm^2), 87.4%; in the assay with Alopecurus japonicus (Alopecurus japonicus, 90 g/hm^2) it was 95.6%.

For `COC(=O)c1nc(-c2ccc(Cl)c(OC)c2F)cc(N)c1Cl` [halauxifen-methyl, reference compound], the “actual fresh weight inhibition rate (%)” value turned out to be 59.7% in the assay on Capsella bursa-pastoris (dosage 5 g/hm^2), 71.4% with Capsella bursa-pastoris (dosage 10 g/hm^2), 17.5% with Myosoton aquaticum (dosage 5 g/hm^2) and 35.6% in the assay on Myosoton aquaticum (dosage 10 g/hm^2).

`COC(=O)c1c(Cl)nn(C)c1S(=O)(=O)NC(=O)Nc1nc(OC)cc(OC)n1` [halosulfuron-methyl]: in the assay with Capsella bursa-pastoris (setting [2]), the pest or weed control at 30 g/ha amounted to 17.9%, the pest or weed control at 50 g/ha came out at 27.8% and the pest or weed control at 70 g/ha was 44.1%. Moreover, in the assay with Myosoton aquaticum (setting [3]), the pest or weed control at 30 g/ha worked out at 14.5%, the pest or weed control at 50 g/ha is 34.9% and the pest or weed control at 70 g/ha stood at 50.5%.

For `CC(C)c1ccc(NC(=O)N(C)C)cc1` [isoproturon], the pest or weed control at 300 g/ha turned out to be 21.7% with Capsella bursa-pastoris (480 h, Capsella bursa-pastoris, 300 g/hm^2, read-out: actual fresh weight inhibition rate) and 19.4% in the assay on Myosoton aquaticum (Myosoton aquaticum, 480 h, Myosoton aquaticum, 300 g/hm^2, read-out: actual fresh weight inhibition rate). Moreover, the pest or weed control at 750 g/ha worked out at 33.7% in the assay on Capsella bursa-pastoris (setting [4]) and 26.4% in the assay on Myosoton aquaticum (setting [5]). Further, the pest or weed control at 1200 g/ha with Capsella bursa-pastoris (480 h, Capsella bursa-pastoris, 1200 g/hm^2, read-out: actual fresh weight inhibition rate) was 57.2%; in the assay with Myosoton aquaticum (Myosoton aquaticum, 480 h, Myosoton aquaticum, 1200 g/hm^2, read-out: actual fresh weight inhibition rate) it was 47.5%.

Take `COC(=O)c1ccc(CNS(C)(=O)=O)cc1S(=O)(=O)NC(=O)Nc1nc(OC)cc(OC)n1` [mesosulfuron-methyl]: the “actual fresh weight inhibition rate” value in the assay on Capsella bursa-pastoris (dosage 6 g/hm^2) turned out to be 24.5%; in the assay on Capsella bursa-pastoris (dosage 9 g/hm^2), 37.6%; in the assay on Capsella bursa-pastoris (dosage 12 g/hm^2), 63.4%; in the assay with Alopecurus japonicus (dosage 6 g/hm^2), 67.9%; in the assay on Alopecurus japonicus (dosage 9 g/hm^2), 73.2%; in the assay with Alopecurus japonicus (dosage 12 g/hm^2) it was 88.9%.

As to `CSc1nnc(C(C)(C)C)c(=O)n1N` [metribuzin, reference compound], the “actual fresh weight inhibition rate (%)” value in the assay on Capsella bursa-pastoris (dosage 13.5 g/hm^2) is 55.6%; with Capsella bursa-pastoris (dosage 25 g/hm^2), 64.1%; in the assay with Capsella bursa-pastoris (dosage 36.5 g/hm^2), 82.3%; with Myosoton aquaticum (dosage 13.5 g/hm^2), 42.1%; in the assay with Myosoton aquaticum (dosage 25 g/hm^2), 52.9%; in the assay with Myosoton aquaticum (dosage 36.5 g/hm^2), 58.5%.

For the compound `O=C(Nc1ccc(F)cc1)c1cccc(Oc2cccc(C(F)(F)F)c2)n1` [picolinafen], the “actual fresh weight inhibition rate” value in the assay on Capsella bursa-pastoris (setting [1]) amounted to 16.4%; in the assay on Capsella bursa-pastoris (Capsella bursa-pastoris, 80 g/hm^2), 33.2%; in the assay on Capsella bursa-pastoris (Capsella bursa-pastoris, 120 g/hm^2) it was 55.6%; in the assay with Myosoton aquaticum (Myosoton aquaticum, 40 g/hm^2), 14.5%; with Myosoton aquaticum (Myosoton aquaticum, 80 g/hm^2), 34.9%; in the assay with Myosoton aquaticum (Myosoton aquaticum, 120 g/hm^2), 50.5%.

`CCc1cc(C)cc(CC)c1-c1c(OC(=O)C(C)(C)C)n2n(c1=O)CCOCC2` [pinoxaden]: the pest or weed control at 60 g/ha in the assay with Capsella bursa-pastoris (Capsella bursa-pastoris, 480 h, dosage 60 g/hm^2, read-out: actual fresh weight inhibition rate) stood at 0%. Also, the pest or weed control at 80 g/ha in the assay with Capsella bursa-pastoris (Capsella bursa-pastoris, 480 h, dosage 80 g/hm^2, read-out: actual fresh weight inhibition rate) was 0%. Further, the pest or weed control at 120 g/ha in the assay on Capsella bursa-pastoris (Capsella bursa-pastoris, 480 h, dosage 120 g/hm^2, read-out: actual fresh weight inhibition rate) worked out at 0%. The “actual fresh weight inhibition rate” value with Alopecurus japonicus (dosage 60 g/hm^2) is recorded as 69.2%; in the assay on Alopecurus japonicus (dosage 80 g/hm^2), 78.6%; in the assay on Alopecurus japonicus (dosage 120 g/hm^2) it was 85.2%.

Consider `CSc1nc(NC(C)C)nc(NC(C)C)n1` [prometryn], for which the pest or weed control at 150 g/ha with Capsella bursa-pastoris (480 h, Capsella bursa-pastoris, 150 g/hm^2, read-out: actual fresh weight inhibition rate) was determined as 20.4%; in the assay with Myosoton aquaticum (Myosoton aquaticum, 480 h, Myosoton aquaticum, 150 g/hm^2, read-out: actual fresh weight inhibition rate) it was 22.6%. Also, the pest or weed control at 450 g/ha in the assay on Capsella bursa-pastoris (480 h, Capsella bursa-pastoris, 450 g/hm^2, read-out: actual fresh weight inhibition rate) is 29.6%; with Myosoton aquaticum (Myosoton aquaticum, 480 h, Myosoton aquaticum, 450 g/hm^2, read-out: actual fresh weight inhibition rate) it was 33.7%. For the same compound, the pest or weed control at 750 g/ha amounted to 45.7% in the assay with Capsella bursa-pastoris (setting [4]) and 45.2% in the assay on Myosoton aquaticum (setting [5]).

On to `COc1cc(OC)n2nc(NS(=O)(=O)c3c(C(F)(F)F)ccnc3OC)nc2n1` [pyroxsulam], for which the “actual fresh weight inhibition rate” value with Capsella bursa-pastoris (dosage 5 g/hm^2) turned out to be 19.4%; in the assay with Capsella bursa-pastoris (dosage 10 g/hm^2) it was 31.7%; with Capsella bursa-pastoris (dosage 15 g/hm^2) it was 55.6%; with Alopecurus japonicus (dosage 5 g/hm^2), 63.5%; in the assay on Alopecurus japonicus (dosage 10 g/hm^2), 81.9%; in the assay with Alopecurus japonicus (dosage 15 g/hm^2), 91.5%.

Turning to `CCNc1nc(NC(C)(C)C)nc(SC)n1` [terbutryn], the pest or weed control at 125 g/ha in the assay on Capsella bursa-pastoris (480 h, Capsella bursa-pastoris, 125 g/hm^2, read-out: actual fresh weight inhibition rate) amounted to 15.4%; with Myosoton aquaticum (Myosoton aquaticum, 480 h, Myosoton aquaticum, 125 g/hm^2, read-out: actual fresh weight inhibition rate) it was 13.4%. For the same compound, the pest or weed control at 275 g/ha in the assay with Capsella bursa-pastoris (480 h, Capsella bursa-pastoris, 275 g/hm^2, read-out: actual fresh weight inhibition rate) turned out to be 25.3%; in the assay with Myosoton aquaticum (Myosoton aquaticum, 480 h, Myosoton aquaticum, 275 g/hm^2, read-out: actual fresh weight inhibition rate) it was 29.3%. The pest or weed control at 425 g/ha with Capsella bursa-pastoris (480 h, Capsella bursa-pastoris, 425 g/hm^2, read-out: actual fresh weight inhibition rate) is 40.9%; in the assay with Myosoton aquaticum (Myosoton aquaticum, 480 h, Myosoton aquaticum, 425 g/hm^2, read-out: actual fresh weight inhibition rate), 33.9%.

On to `CCO/N=C(\CC)C1=C(O)CC(c2c(C)cc(C)cc2C)CC1=O` (stereo not shown) [tralkoxydim], for which, in the assay with Capsella bursa-pastoris (setting [2]), the pest or weed control at 240 g/ha is 0%, the pest or weed control at 360 g/ha came to 0% and the pest or weed control at 480 g/ha came out at 0%. The “actual fresh weight inhibition rate” value in the assay on Alopecurus japonicus (Alopecurus japonicus, 240 g/hm^2) is given as 74.5%. Besides, the “actual fresh weight inhibition rate” value with Alopecurus japonicus (Alopecurus japonicus, 360 g/hm^2) was 81.2%. For the same compound, in the assay on Alopecurus japonicus (Alopecurus japonicus, 480 g/hm^2), the “actual fresh weight inhibition rate” value was 89.8%.

“dimethylammonium 4-chloro-o-tolyloxyacetate [MCPA-dimethylammonium, reference compound]”: the “actual fresh weight inhibition rate (%)” value in the assay on Capsella bursa-pastoris (dosage 550 g/hm^2) is on record as 29.2%; with Capsella bursa-pastoris (dosage 950 g/hm^2), 43.6%; in the assay on Capsella bursa-pastoris (dosage 1350 g/hm^2) it was 59.2%; with Myosoton aquaticum (dosage 550 g/hm^2) it was 26.7%; in the assay on Myosoton aquaticum (dosage 950 g/hm^2), 33.1%; in the assay on Myosoton aquaticum (dosage 1350 g/hm^2), 47.2%.
